In brackets after ≈: the same amount, converted by molar mass.
Conditions: buffer; pH 7.4; 200.0 µM

SMILES	solubility kinetic
Cc1ccc(CCN2CC(C(=O)NC(C)C)CC2=O)cc1 (stereo not drawn)	> 43.3 µg/mL
O=C(NCc1ccccn1)Nc1cccc(F)c1	35.9 µg/mL (≈ 146 µM)
CC(=O)NC1C(Oc2ccccc2C)OC(CO)C(O)C1O (stereo not drawn)	> 46.7 µg/mL
O=[N+]([O-])c1ccc(CSC2=NCCS2)cc1	16.1 µg/mL (≈ 63.3 µM)
CCOc1ccccc1NC(=O)COC(=O)C1CCC(=O)N1 (stereo not drawn)	> 45.9 µg/mL
CCc1ccccc1NC(=S)N(Cc1cccs1)C1CCCC1	13.9 µg/mL (≈ 40.3 µM)
CCn1nc(C)c(/C=N/NC(=O)Cn2cncn2)c1C	> 41.3 µg/mL
CCN1CCN(C(=O)C2CC(=O)N(c3ccc(Cl)cc3)C2)CC1 (stereo not drawn)	> 50.4 µg/mL
O=c1[nH]c(=O)n(-c2cccc(F)c2)c(O)c1/C=C1\C=Nc2ccccc21	2.9 µg/mL (≈ 8.3 µM)
O=C(COc1ccccc1)N1CCCCCCC1	> 37.1 µg/mL
COc1ccccc1N1CCN(CCCCN2C(=O)C3CCCCN3C2=O)CC1 (stereo not drawn)	52.4 µg/mL (≈ 131 µM)
CC1(C)Nc2ccccc2N(Cc2ccc([N+](=O)[O-])cc2)C1=O	> 46.7 µg/mL
Cc1ccc(OCC(O)Cn2nc(C)cc2C)cc1 (stereo not drawn)	> 39.1 µg/mL
CCOc1cc(/C=C2/C(=O)ON=C2C)ccc1O	27.2 µg/mL (≈ 110 µM)
CC(CC(=O)NCCc1ccc(S(N)(=O)=O)cc1)c1ccccc1 (stereo not drawn)	> 52 µg/mL
O=C(Nc1ccccc1)c1cc2ccc3ccccc3c2s1	< 0.6 µg/mL
Cc1cc(NC(=O)c2ccc([N+](=O)[O-])cc2)n(C)n1	> 39 µg/mL
COc1ccc(NC2=CC(=O)CC(C)(C)C2)cc1	> 36.8 µg/mL
Cc1ccccc1NC(=S)N1CCN(c2ccccc2)CC1	0.6 µg/mL (≈ 1.93 µM)
Cc1ccc(NC(=O)COC(=O)c2cccc(C)c2[N+](=O)[O-])cc1S(=O)(=O)N1CCCCC1	3.8 µg/mL (≈ 7.99 µM)
CC1(C)CC(=O)C(C(O)c2ccc([N+](=O)[O-])cc2)C(C)(C)N1 (stereo not drawn)	39.9 µg/mL (≈ 130 µM)
Cc1cccc(C)c1NC(=S)N(CCN(C)C)Cc1cccs1	45.8 µg/mL (≈ 132 µM)
Cn1ccnc1Sc1ccc(C=O)cc1[N+](=O)[O-]	> 39.5 µg/mL
Fc1ccc(NC(=S)Nc2cccnc2)c(F)c1F	> 42.5 µg/mL

SMILES	solubility kinetic
O=C1C(Cc2ccc3[nH]ccc3c2)NC(=S)N1c1ccccc1 (stereo not drawn)	> 48.2 µg/mL
Cc1cc(NC(=O)CC(C)C)c(=O)n(Cc2ccccc2F)c1	37.3 µg/mL (≈ 118 µM)
COc1cc2nc(Nc3ccc(F)cc3)nc(N)c2cc1OC.Cl	> 52.6 µg/mL
Cc1ccsc1CNCC(O)c1ccccc1.Cl (stereo not drawn)	> 42.6 µg/mL
Cc1noc(C)c1C(=O)OCC(=O)N(C)C1(C#N)CCCCC1	> 47.9 µg/mL
O=C(O)CNc1ccccc1C(=O)O	> 29.3 µg/mL
NC(=O)COC(=O)c1cccnc1Nc1ccccc1F	36.1 µg/mL (≈ 125 µM)
O=C(/C=C\c1ccccc1)Oc1cccc2cccnc12	17.3 µg/mL (≈ 62.8 µM)
C=CCSc1nnc(NC(=O)C2=COCCO2)s1	> 42.8 µg/mL
O=[N+]([O-])c1ccc(NCc2ccc(Cl)cc2)nc1	1.2 µg/mL (≈ 4.55 µM)
CC(C)CN(C(=O)CCNC(=O)c1ccc([N+](=O)[O-])cc1)C1CCS(=O)(=O)C1 (stereo not drawn)	57 µg/mL (≈ 139 µM)
CCc1ccc2oc(-c3ccc(NC(C)=O)cc3)nc2c1	0.8 µg/mL (≈ 2.85 µM)
Cl.N=c1ccn(Cc2ccc(F)cc2)cc1	> 35.8 µg/mL
O=C(OCC(=O)N1CCCc2ccccc21)c1cc(Cl)ccc1O	3.4 µg/mL (≈ 9.83 µM)
CCOc1ccc(NC(=O)c2cc3ccccc3cc2OC)cc1	< 0.7 µg/mL
CN(c1ccccc1)S(=O)(=O)c1ccc(-c2ccccc2)cc1	< 0.7 µg/mL
COc1cc(/C=C2\N=C(C)OC2=O)cc(OC)c1OC	25.3 µg/mL (≈ 91.2 µM)
O=C(/C=C/c1ccco1)NCc1ccco1	> 32.6 µg/mL
CC1CCCN(C(=O)c2ccc([N+](=O)[O-])o2)C1 (stereo not drawn)	> 35.7 µg/mL
CCCN1CCC[C@H](c2cccc(O)c2)C1.Cl	> 38.4 µg/mL
CN=C1S/C(=C\c2ccc(O)c(OC)c2)C(=O)N1C	5.9 µg/mL (≈ 21.2 µM)
Cc1ccccc1S(=O)(=O)NCc1ccc(N2CCN(C)CC2)cc1	53.1 µg/mL (≈ 148 µM)
Cc1cc(C(=O)Nc2ccc(Cl)cc2)c2ccccc2n1	< 0.3 µg/mL
COc1ccc(CCNC(=O)CN2C(=O)NC3(CCCCC3)C2=O)cc1	> 53.9 µg/mL
